The record followed here is patent US20210122739A1, “NOVEL SULFONAMIDE CARBOXAMIDE COMPOUNDS” (Inflazome Limited, priority 2017, published 2021).

Each structure is given as a SMILES string.

Test [1] concerns the target T1, NLRP3 (Homo sapiens, UniProt Q96P20). As to the kind of experiment: Human whole blood IL1β release assay. Type of test: cell-based. More on the design: Plate out 80 μl of whole blood containing 1 μg/ml of LPS; from tissue; host or cells: human whole blood from healthy donors, LPS-primed, nigericin-stimulated. Conditions: 1 μg/ml LPS, nigericin 10 μM, IL-1β by AlphaLisa, read-out: HWB IC50. The method, then: For systemic delivery, the ability to inhibit NLRP3 when the compounds are present within the bloodstream is of great importance. For this reason, the NLRP3 inhibitory activity of a number of compounds in human whole blood was investigated in accordance with the following protocol.
Human whole blood in Li-heparin tubes was obtained from healthy donors from a volunteer donor panel. • 1. Plate out 80 μl of whole blood containing 1 μg/ml of LPS in 96-well, clear bottom cell culture plate (Corning #3585) • 2. Add 10 μl compound (8 points half-log dilution with 10 μM top dose) or vehicle (DMSO 0.1% FAC) to the appropriate wells • 3. Incubate for 3 hrs at 37° C., 5% CO2 • 4. Add 10 μl Nigericin (Sigma #N7143) (10 μM FAC) to all wells • 5. Incubate for 1 hr at 37° C., 5% CO2 • 6. At the end of the incubation period, spin plates at 300×g for 5 mins to pellet cells and remove 20 μl of supernatant and add to 96-well v-bottom plates for IL-1β analysis (note: these plates containing the supernatants can be stored at −80° C. to be analysed at a later date) • 7. IL-1β was measured according to the manufacturer protocol (Perkin Elmer-AlphaLisa IL-1 Kit AL220F-5000) • 8. IC50 data is fitted to anon-linear regression equation (log inhibitor vs response-variable slope 4-parameters)

Test [2] deals with T1, NLRP3. Kind of test: THP-1 cells pyroptosis assay. More on the design: Seed THP-1 cells (25,000 cells/well) containing 1.0 μg/ml LPS; host or cells: THP-1 cells, LPS-primed, nigericin-stimulated. Type of test: cell-based. The conditions noted are these: 1.0 μg/ml LPS, nigericin 5 μM, resazurin readout. The source says: It is well established that the activation of NLRP3 leads to cell pyroptosis and this feature plays an important part in the manifestation of clinical disease (Yan-gang Liu et al., Cell Death & Disease, 2017, 8(2), e2579; Alexander Wree et al., Hepatology, 2014, 59(3), 898-910; Alex Baldwin et al., Journal of Medicinal Chemistry, 2016, 59(5), 1691-1710; Ema Ozaki et al., Journal of Inflammation Research, 2015, 8, 15-27; Zhen Xie & Gang Zhao, Neuroimmunology Neuroinflammation, 2014, 1(2), 60-65; Mattia Cocco et al., Journal of Medicinal Chemistry, 2014, 57(24), 10366-10382; T. Satoh et al., Cell Death & Disease, 2013, 4, e644). Therefore, it is anticipated that inhibitors of NLRP3 will block pyroptosis, as well as the release of pro-inflammatory cytokines (e.g. IL-1β) from the cell.
THP-1 cells (ATCC #TIB-202) were grown in RPMI containing L-glutamine (Gibco #11835) supplemented with 1 mM sodium pyruvate (Sigma #S8636) and penicillin (100 units/ml)/streptomycin (0.1 mg/ml) (Sigma #P4333) in 10% Fetal Bovine Serum (FBS) (Sigma #F0804). The cells were routinely passaged and grown to confluency (˜10^6 cells/ml). On the day of the experiment, THP-1 cells were harvested and resuspended into RPMI medium (without FBS). The cells were then counted and viability (>90%) checked by Trypan blue (Sigma #T8154). Appropriate dilutions were made to give a concentration of 625,000 cells/ml. To this diluted cell solution was added LPS (Sigma #L4524) to give a 1 μg/ml Final Assay Concentration (FAC). 40 μl of the final preparation was aliquoted into each well of a 96-well plate. The plate thus prepared was used for compound screening.
The following method step-by-step assay was followed for compound screening. • 1. Seed THP-1 cells (25,000 cells/well) containing 1.0 μg/ml LPS in 40 μl of RPMI medium (without FBS) in 96-well, black walled, clear bottom cell culture plates coated with poly-D-lysine (VWR #734-0317) • 2. Add […] compound (8 points half-log dilution, with 10 μM top dose) or vehicle (DMSO 0.1% FAC) to the appropriate wells • 3. Incubate for 3 hrs at 37° C. in 5% CO2 • 4. Add 5 μl nigericin (Sigma #N7143) (FAC 5 μM) to all wells • 5. Incubate for 1 hr at 37° C. and 5% CO2 • 6. At the end of the incubation period, spin plates at 300×g for 3 mins and remove supernatant • 7. Then add 50 μl of resazurin (Sigma #R7017) (FAC 100 μM resazurin in RPMI medium without FBS) and incubate plates for a further 1-2 hrs at 37° C. and 5% CO2 • 8. Plates were read in an Envision reader at Ex 560 nm and Em 590 nm • 9. IC50 data is fitted to a non-linear regression equation (log inhibitor vs response-variable slope 4-parameters)

T1 sequence (Q96P20 whole entry): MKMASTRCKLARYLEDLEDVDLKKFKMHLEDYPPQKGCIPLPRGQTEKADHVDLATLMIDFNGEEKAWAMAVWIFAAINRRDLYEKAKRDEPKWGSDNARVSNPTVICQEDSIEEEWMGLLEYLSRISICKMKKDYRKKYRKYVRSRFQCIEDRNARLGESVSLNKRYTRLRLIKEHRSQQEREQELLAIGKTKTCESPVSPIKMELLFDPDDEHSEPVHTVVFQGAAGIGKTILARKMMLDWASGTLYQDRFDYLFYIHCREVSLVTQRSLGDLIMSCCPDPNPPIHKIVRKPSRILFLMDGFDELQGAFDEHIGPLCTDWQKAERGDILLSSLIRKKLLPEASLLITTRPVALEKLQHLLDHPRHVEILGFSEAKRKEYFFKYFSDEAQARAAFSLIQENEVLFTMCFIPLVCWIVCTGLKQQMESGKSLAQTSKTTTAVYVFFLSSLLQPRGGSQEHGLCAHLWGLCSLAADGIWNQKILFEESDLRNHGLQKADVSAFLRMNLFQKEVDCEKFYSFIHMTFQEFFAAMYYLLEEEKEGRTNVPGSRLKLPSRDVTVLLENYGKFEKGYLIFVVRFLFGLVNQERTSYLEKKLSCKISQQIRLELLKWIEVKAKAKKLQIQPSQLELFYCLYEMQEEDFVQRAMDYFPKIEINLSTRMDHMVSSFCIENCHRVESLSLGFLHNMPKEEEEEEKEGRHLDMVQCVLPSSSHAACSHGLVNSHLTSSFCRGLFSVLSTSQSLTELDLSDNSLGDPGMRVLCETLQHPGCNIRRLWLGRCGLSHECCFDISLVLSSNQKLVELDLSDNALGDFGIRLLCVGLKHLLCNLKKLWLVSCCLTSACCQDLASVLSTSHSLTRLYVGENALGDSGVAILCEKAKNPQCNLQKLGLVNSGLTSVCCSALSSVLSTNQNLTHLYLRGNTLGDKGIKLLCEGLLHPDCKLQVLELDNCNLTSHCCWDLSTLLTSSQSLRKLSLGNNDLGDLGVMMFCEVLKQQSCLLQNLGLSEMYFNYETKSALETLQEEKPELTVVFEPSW

Consider `CC(=O)N(C)Cc1cc(S(=O)(=O)NC(=O)Nc2c3c(cc4c2CCC4)CCC3)nn1C(C)C` [Example 29, N-((3-(N-((1,2,3,5,6,7-Hexahydro-s-indacen-4-yl)carbamoyl)sulfamoyl)-1-isopropyl-1H-pyrazol-5-yl)methyl)-N-methylacetamide], for which the IC50 lay in the range of 400 to 800 nM at NLRP3 [1] and 40 to 160 nM at NLRP3 [2].

Consider `CNC(=O)c1cc(S(=O)(=O)NC(=O)Nc2c(C(C)C)cc(Cl)cc2C(C)C)nn1C` [Example 32, 3-(N-((4-Chloro-2,6-diisopropylphenyl)carbamoyl)sulfamoyl)-N,1-dimethyl-1H-pyrazole-5-carboxamide], for which the 50% inhibitory concentration (IC50) was in the range of 1600 to 3200 nM on NLRP3 [1] and 160 to 640 nM on NLRP3 [2].

In the case of `CC(C)c1cc(F)cc(-c2cnn(C)c2)c1NC(=O)NS(=O)(=O)c1cc(C(=O)N(C)C)n(C)n1` [Example 35, 3-(N-((4-Fluoro-2-isopropyl-6-(1-methyl-H-pyrazol-4-yl)phenyl)carbamoyl)sulfamoyl)-N,N,1-trimethyl-1H-pyrazole-5-carboxamide], the figures for the IC50 on NLRP3 [1] and against NLRP3 [2] were less than 400 nM and 640 to 2560 nM, respectively.

For `CC(C)c1cccc(C(C)C)c1NC(=O)NS(=O)(=O)c1cc(C(=O)N2CC(F)C2)n(C)n1` [Example 39, N-((2,6-Diisopropylphenyl)carbamoyl)-5-(3-fluoroazetidine-1-carbonyl)-1-methyl-1H-pyrazole-3-sulfonamide], the IC50 was in the range of 800 to 1600 nM at NLRP3 [1] and 640 to 2560 nM against NLRP3 [2].

In the case of `CC(C)c1cc(F)cc(-c2cncnc2)c1NC(=O)NS(=O)(=O)c1cc(C(=O)N(C)C)n(C)n1` [Example 42, 3-(N-((4-Fluoro-2-isopropyl-6-(pyrimidin-5-yl)phenyl)carbamoyl)sulfamoyl)-N,N,1-trimethyl-1H-pyrazole-5-carboxamide], the IC50 was less than 400 nM at NLRP3 [1] and 160 to 640 nM against NLRP3 [2].

On to `CC(C)c1cccc(C(C)C)c1NC(=O)NS(=O)(=O)c1cc(C(=O)N(C)C2CC2)n(C)n1` [Example 43, N-Cyclopropyl-3-(N-((2,6-diisopropylphenyl)carbamoyl)sulfamoyl)-N,1-dimethyl-1H-pyrazole-5-carboxamide], for which the IC50 on NLRP3 [1] is 800 to 1600 nM; at NLRP3 [2], 40 to 160 nM.

In the case of `CC(C)c1ccc(C(C)C)c(NC(=O)NS(=O)(=O)c2cc(C(=O)N(C)C)n(C)n2)c1` [Example 44, 3-(N-((2,5-Diisopropylphenyl)carbamoyl)sulfamoyl)-N,N,1-trimethyl-1H-pyrazole-5-carboxamide], the IC50 at NLRP3 [1] is 3200 to 10000 nM; against NLRP3 [2], 160 to 640 nM.

Regarding `CC(C)c1cc(F)cc(C(C)C)c1NC(=O)NS(=O)(=O)c1cc(C(=O)N(C)C(C)C)n(C)n1` [Example 47, 3-(N-((4-Fluoro-2,6-diisopropylphenyl)carbamoyl)sulfamoyl)-N-isopropyl-N,1-dimethyl-1H-pyrazole-5-carboxamide], the results for the IC50 on NLRP3 [1] and against NLRP3 [2] were 400 to 800 nM and 40 to 160 nM, respectively.

With `CCN(C)C(=O)c1cc(S(=O)(=O)NC(=O)Nc2c(C(C)C)cc(F)cc2C(C)C)nn1C` [Example 49, N-Ethyl-3-(N-((4-fluoro-2,6-diisopropylphenyl)carbamoyl)sulfamoyl)-N,1-dimethyl-1H-pyrazole-5-carboxamide], the IC50 on NLRP3 [1] was 400 to 800 nM; against NLRP3 [2] it was 160 to 640 nM.

Take `CNC(=O)c1cc(S(=O)(=O)NC(=O)Nc2c(C(C)C)cc(F)cc2C(C)C)nn1C` [Example 50, 3-(N-((4-Fluoro-2,6-diisopropylphenyl)carbamoyl)sulfamoyl)-N,1-dimethyl-1H-pyrazole-5-carboxamide]: the values for the IC50 at NLRP3 [1] and against NLRP3 [2] were less than 400 nM and 160 to 640 nM, respectively.

`CC(C)c1cccc(C(C)C)c1NC(=O)NS(=O)(=O)c1cc(C(=O)N2CCC2)n(C)n1` [Example 51, 5-(Azetidine-1-carbonyl)-N-((2,6-diisopropylphenyl)carbamoyl)-1-methyl-1H-pyrazole-3-sulfonamide]: the IC50 on NLRP3 [1] is less than 400 nM; against NLRP3 [2], 160 to 640 nM.

Consider `CN(C(=O)c1cc(S(=O)(=O)NC(=O)Nc2c3c(cc4c2CCC4)CCC3)nn1C)C1CC1` [Example 52, N-Cyclopropyl-3-(N-((1,2,3,5,6,7-hexahydro-s-indacen-4-yl)carbamoyl)sulfamoyl)-N,1-dimethyl-1H-pyrazole-5-carboxamide], for which the IC50 at NLRP3 [1] is 400 to 800 nM; against NLRP3 [2], 40 to 160 nM.

As to `CN(CC#N)C(=O)c1cc(S(=O)(=O)NC(=O)Nc2c3c(cc4c2CCC4)CCC3)nn1C` [Example 53, N-(Cyanomethyl)-3-(N-((1,2,3,5,6,7-hexahydro-s-indacen-4-yl)carbamoyl)sulfamoyl)-N,1-dimethyl-1H-pyrazole-5-carboxamide], the IC50 on NLRP3 [1] lay within 800 to 1600 nM; against NLRP3 [2], 160 to 640 nM.

As for `Cn1nc(S(=O)(=O)NC(=O)Nc2c3c(cc4c2CCC4)CCC3)cc1C(=O)N1CCC1` [Example 54, 5-(Azetidine-1-carbonyl)-N-((1,2,3,5,6,7-hexahydro-s-indacen-4-yl)carbamoyl)-1-methyl-1H-pyrazole-3-sulfonamide], the values for the IC50 on NLRP3 [1] and on NLRP3 [2] were 1600 to 3200 nM and 40 to 160 nM, respectively.

For `CNC(=O)c1cc(S(=O)(=O)NC(=O)Nc2c(C(C)C)cccc2C(C)C)nn1C` [Example 55, 3-(N-((2,6-Diisopropylphenyl)carbamoyl)sulfamoyl)-N,1-dimethyl-1H-pyrazole-5-carboxamide], the IC50 is 400 to 800 nM at NLRP3 [1] and 160 to 640 nM at NLRP3 [2].

With `CCN(C)C(=O)c1cc(S(=O)(=O)NC(=O)Nc2c(C(C)C)cccc2C(C)C)nn1C` [Example 56, 3-(N-((2,6-Diisopropylphenyl)carbamoyl)sulfamoyl)-N-ethyl-N,1-dimethyl-1H-pyrazole-5-carboxamide], the 50% inhibitory concentration (IC50) is 1600 to 3200 nM on NLRP3 [1] and 640 to 2560 nM on NLRP3 [2].

Turning to `CC(C)c1cccc(C(C)C)c1NC(=O)NS(=O)(=O)c1cc(C(=O)N(C)C(C)C)n(C)n1` [Example 58, 3-(N-((2,6-Diisopropylphenyl)carbamoyl)sulfamoyl)-N-isopropyl-N,1-dimethyl-1H-pyrazole-5-carboxamide], the results for the half-maximal inhibitory concentration (IC50) on NLRP3 [1] and at NLRP3 [2] were 400 to 800 nM and 160 to 640 nM, respectively.

Turning to `CC(C)N(C)C(=O)c1cc(S(=O)(=O)NC(=O)Nc2c3c(cc4c2CCC4)CCC3)nn1C` [Example 64, 3-(N-((1,2,3,5,6,7-Hexahydro-s-indacen-4-yl)carbamoyl)sulfamoyl)-N-isopropyl-N,1-dimethyl-1H-pyrazole-5-carboxamide], the IC50 on NLRP3 [1] is 1600 to 3200 nM; on NLRP3 [2], 40 to 160 nM.

Regarding `CCN(CC)C(=O)c1cc(S(=O)(=O)NC(=O)Nc2c3c(cc4c2CCC4)CCC3)nn1C` [Example 65, N,N-Diethyl-3-(N-((1,2,3,5,6,7-hexahydro-s-indacen-4-yl)carbamoyl)sulfamoyl)-1-methyl-1H-pyrazole-5-carboxamide], the IC50 was in the range of 800 to 1600 nM on NLRP3 [1] and 40 to 160 nM at NLRP3 [2].
